According to ChEMBL document CHEMBL3627656 (Bioorg Med Chem, 2015):

Assays:
[1] = target: T1, Prostaglandin G/H synthase 1 (Ovis aries, UniProt P05979); test: Inhibition of ovine COX-1 using arachidonic acid after 5 mins by colorimetric method
T1 sequence (P05979 whole entry): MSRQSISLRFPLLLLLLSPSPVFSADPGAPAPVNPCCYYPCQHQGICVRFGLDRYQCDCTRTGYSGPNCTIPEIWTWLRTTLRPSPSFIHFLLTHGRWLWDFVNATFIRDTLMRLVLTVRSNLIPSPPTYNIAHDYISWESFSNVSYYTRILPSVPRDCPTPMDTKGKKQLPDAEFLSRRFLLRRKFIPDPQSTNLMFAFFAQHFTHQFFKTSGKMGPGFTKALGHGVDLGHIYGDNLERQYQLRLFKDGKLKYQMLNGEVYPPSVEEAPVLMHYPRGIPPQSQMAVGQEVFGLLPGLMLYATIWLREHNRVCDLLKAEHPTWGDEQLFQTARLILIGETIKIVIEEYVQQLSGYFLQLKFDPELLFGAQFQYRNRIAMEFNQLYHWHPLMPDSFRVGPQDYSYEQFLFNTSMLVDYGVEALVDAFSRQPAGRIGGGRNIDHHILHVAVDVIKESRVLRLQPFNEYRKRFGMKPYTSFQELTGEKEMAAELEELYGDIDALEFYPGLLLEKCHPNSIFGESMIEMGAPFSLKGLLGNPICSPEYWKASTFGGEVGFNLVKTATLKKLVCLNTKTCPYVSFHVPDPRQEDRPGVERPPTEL

[2] = Lipophilicity, LogP of the compound at pH 7.4 by reverse-phase HPLC; assay type: physicochemical; conditions: buffer
[3] = Apparent permeability across basolateral to apical side in human Caco2 cells at 1 uM after 2 hrs by LC-MS method; assay type: ADME, cell-based; conditions: Caco-2
[4] = Apparent permeability across basolateral to apical side in human Caco2 cells at 10 uM after 2 hrs […] by LC-MS method; assay type: ADME, cell-based; conditions: Caco-2
[5] = Apparent permeability across apical to basolateral side in human Caco2 cells at 1 uM after 1 hr by LC-MS method; assay type: ADME, cell-based; conditions: Caco-2
[6] = Apparent permeability across apical to basolateral side in human Caco2 cells at 10 uM after 1 hr by LC-MS method; assay type: ADME, cell-based; conditions: Caco-2

SMILES | IC50 [1] [µM] | logP [2] | Papp B→A at 2 h, 1 µM [3] [×10⁻⁶ cm/s] | Papp B→A at 2 h, 10 µM [4] [×10⁻⁶ cm/s] | Papp A→B at 1 h, 1 µM [5] [×10⁻⁶ cm/s] | Papp A→B at 1 h, 10 µM [6] [×10⁻⁶ cm/s]
COc1ccccc1Oc1cc([N+](=O)[O-])ccc1NS(C)(=O)=O | > 100 | 1.26 | 8.5 | 25.4 | 11.2 | 38.1
COc1cccc(Oc2cc([N+](=O)[O-])ccc2NS(C)(=O)=O)c1 | > 100 | 1.65 | 40.4 | 51.9 | 42.7 | 52.3
COc1ccc(Oc2cc([N+](=O)[O-])ccc2NS(C)(=O)=O)cc1 | > 100 | 1.41 | 6.8 | 3.1 | 8.3 | 18.2
CS(=O)(=O)Nc1ccc([N+](=O)[O-])cc1Oc1ccccc1 [NIMESULIDE] | > 100 |  |  |  |  | 
